Assay results reported in patent publication EP3705478B1, “TRIAZINE COMPOUND AND PHARMACEUTICALLY ACCEPTABLE SALT THEREOF” (Shenzhen Forward Pharmaceuticals Co., Ltd., priority 2017, dated 2018).
Read-outs that look alike come from different tables or passages of the source.

Assays:
[1] = system: NCI-H1975 (L858R/T790M double mutant EGFR); assay: Test 3: Proliferation Test of L858R/T790M EGFR (double mutant) cells (Cell Titer-Glo); assay type: cell-based, human; details: for IC50: Homo sapiens, NCI-H1975 cells, 72 hours; for Ratio of IC50 value of Test 2 to that of Test 3: selectivity: wild-type EGFR cells vs L858R/T790M EGFR (double mutant) cells
Description: (§1) NCI-H1975 cells are cultured in RPMI1640 medium containing 10% fetal bovine serum and 2 mM glutamine. Cells are grown in a humidified incubator with 5% CO2 at 37°C.
(§2) The number of viable cells in the culture is determined according to the protocol described in Cell Titer-Glo Luminescent cell Viability Assay (Promega catalog number: # G7570) of Promega company. 90 µl of cells (8000 cells/well) are cultured in growth medium in a Corning 96-well plate with black transparent bottom, culturing in a humidified incubator with 5% CO2 at 37°C overnight. The compound serially diluted in 100% DMSO is added to the cells by pipette, culturing the cells for another 72 hours. 100 µl of the mixed Cell Titer-Glo reagent is added to the cells in the 96-well culture plate to lyse the cells, mixing gently. Subsequently, the […] is detected on the Envision microplate detector to obtain data of the compound. Finally, the data is input into a suitable software package (such as Prism) for curve fitting analysis.

[2] = molecular target: T1, L858R/T790M EGFR (double mutant) (Homo sapiens, UniProt P00533, L858R/T790M); assay: Test 1: Phosphorylation Test of L858R/T790M EGFR (double mutant) Cells (phospho-EGFR ELISA); assay type: cell-based; details: NCI-H1975 cells, p-EGFR in cell lysate, compound incubation 2 hours
T1 construct: The detection of phosphorylated p-EGFR of endogenous cells in cell lysate; host or cells: NCI-H1975
T1 sequence (P00533 25-1210 T790M/L858R): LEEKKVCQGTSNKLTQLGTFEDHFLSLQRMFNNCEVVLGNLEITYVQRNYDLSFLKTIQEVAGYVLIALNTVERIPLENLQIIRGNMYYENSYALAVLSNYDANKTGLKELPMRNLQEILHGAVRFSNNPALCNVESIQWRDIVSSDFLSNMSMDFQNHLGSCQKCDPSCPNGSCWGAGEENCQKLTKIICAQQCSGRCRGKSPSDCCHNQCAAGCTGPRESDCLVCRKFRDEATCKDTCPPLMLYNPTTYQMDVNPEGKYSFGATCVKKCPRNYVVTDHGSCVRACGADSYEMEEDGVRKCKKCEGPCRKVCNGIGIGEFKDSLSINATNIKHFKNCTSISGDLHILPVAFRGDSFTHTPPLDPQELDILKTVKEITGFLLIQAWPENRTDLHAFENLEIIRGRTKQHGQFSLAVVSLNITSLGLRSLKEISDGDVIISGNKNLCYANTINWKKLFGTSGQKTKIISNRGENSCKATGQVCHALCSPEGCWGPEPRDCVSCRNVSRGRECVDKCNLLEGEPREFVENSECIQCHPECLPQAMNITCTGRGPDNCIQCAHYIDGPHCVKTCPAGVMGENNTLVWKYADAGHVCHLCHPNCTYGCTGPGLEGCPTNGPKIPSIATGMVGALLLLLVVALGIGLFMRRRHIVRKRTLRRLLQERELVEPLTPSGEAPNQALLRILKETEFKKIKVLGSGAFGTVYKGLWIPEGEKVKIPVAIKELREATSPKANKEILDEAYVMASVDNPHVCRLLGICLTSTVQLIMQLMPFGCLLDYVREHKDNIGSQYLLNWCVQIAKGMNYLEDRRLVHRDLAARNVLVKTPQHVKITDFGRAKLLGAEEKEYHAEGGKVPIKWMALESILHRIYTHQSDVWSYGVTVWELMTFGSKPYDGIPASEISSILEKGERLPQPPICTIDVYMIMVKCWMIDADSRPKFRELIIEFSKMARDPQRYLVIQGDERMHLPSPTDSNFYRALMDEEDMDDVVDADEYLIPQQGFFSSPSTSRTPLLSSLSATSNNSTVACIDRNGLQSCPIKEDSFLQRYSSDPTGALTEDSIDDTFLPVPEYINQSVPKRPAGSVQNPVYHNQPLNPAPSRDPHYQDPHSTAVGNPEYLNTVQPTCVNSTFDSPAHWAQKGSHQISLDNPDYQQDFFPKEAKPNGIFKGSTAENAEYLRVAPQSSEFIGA
Description: as §1
The detection of phosphorylated p-EGFR of endogenous cells in cell lysate is performed according to the protocol described in the DuoSet IC Human Phospho-EGFR ELISA (R&D Systems catalog number: # DYC1095) of R&D Systems Company. 90 µl of cells (8000 cells/well) are cultured in growth medium in a Corning 96-well plate with black transparent bottom, after culturing in a humidified incubator with 5% CO2 at 37°C overnight, the cell culture medium is replaced with RPMI1640 medium containing 1% fetal bovine serum and 2 mM glutamine to culture continuously. The compound serially diluted in 100% DMSO is added to the cells by pipette, and after gently mixing the medium, the cells are incubated for another 2 hours. 100 µl of 1X lysis buffer is added to each well. Greiner high-binding 96-well plates are coated with capture antibody, and then blocked with 3% BSA. After removing the blocking solution, 100 µl of lysate is transferred to a Greiner high-binding 96-well plate, then incubating for 2 hours. After gently mixing and washing the culture plate with PBS, 100 µl of detection antibody is added, then incubating for 2 hours. […] 100 µl of stop solution is added to the culture plate, and the absorbance of each well at 450 nm wavelength is measured. Finally, the data is input into a suitable software package (such as Prism) for curve fitting analysis.

[3] = system: A431 (wild-type EGFR); assay: Test 2: Proliferation Test of Wild-type EGFR Cells (Cell Titer-Glo); assay type: cell-based; details: Homo sapiens, read-out: IC50 value, Test 2
Description: The human […] cell line A431 (wild-type EGFR) is obtained from the American Type Culture Collection. […] cells are cultured in RPMI1640 medium containing 10% fetal bovine serum and 2 mM glutamine. Cells are grown in a humidified incubator with 5% CO2 at 37°C.
as §2

[4] = Test 6: Test of Plasma Protein Binding Rate (equilibrium dialysis), mouse plasma; assay type: in vitro ADME; details: equilibrium dialysis at 37°C for 4 hours, read-out: % Unbound of mouse plasma sample in Test 6
Description: (§3) The test of plasma protein binding rate is performed by using the 96-well equilibrium dialysis device from HTDialysis Company. The human plasma samples or mouse plasma samples with a concentration of 2 µM for the test and control compounds are performed equilibrium dialysis at 37°C for 4 hours so as to conduct the protein binding study. 150 µL of plasma sample with the test compound is added to the administration end of each dialysis well, and 150 µL of blank dialysis buffer is added to the receiving end corresponding to the dialysis well. The dialysis plate is then placed in a humidified incubator with 5% CO2 to incubate at 37°C for 4 hours. After dialysis, 50 µL of the dialyzed buffer sample and the dialyzed plasma sample are transferred to a new 96-well plate (sample receiving plate). The corresponding volume of corresponding blank plasma or buffer is added to the sample. All samples are analyzed by LC/MS/MS after protein precipitation. The concentration of the sample is expressed as the ratio of the peak area of the compound to the internal standard substance (semi-quantitative). Finally, the % Unbound, % Bound, and % Recovery of the compound are calculated according to the formula.

[5] = system: BalF3-DTM-EGFR (mutant EGFR) cells; assay: Test 5: Proliferation Test of Ba/F3-DTM-EGFR cells (Cell Titer-Glo); assay type: cell-based; details: for Inhibitory selectivity of the compound, Ratio of IC50 value of Test 4 to IC50 value of Test 5: Ba/F3-CAT-EGFR vs Ba/F3-DTM-EGFR cells; for IC50: Ba/F3-DTM-EGFR cells (T790M mutation and Exon19-deficient EGFR), 72 hours
Description: Ba/F3-DTM-EGFR cell viability detection is based on the detection technology developed by CellTiter-Glo®. […] This cell strain lives depending on the kinase activity of EGFR, if the mutant EGFR is inhibited by a small molecule compound, the cell strain will die. Therefore, the specificity and activity of EGFR small molecules on mutant EGFR may be evaluated by observing the effect of EGFR small molecules on cell viability.
BalF3-DTM-EGFR (mutant EGFR) cells are cultured in RPMI1640 medium containing 10% fetal bovine serum and 2 mM glutamine. Cells are grown in a humidified incubator with 5% CO2 at 37°C.
as §2, with “100” for “90”, “(3000” for “(8000”

[6] = system: Ba/F3-CAT-EGFR (wild-type EGFR) cells; assay: Test 4: Proliferation Test of BalF3-CAT-EGFR cells (Cell Titer-Glo); assay type: cell-based; details: 72 hours
Text: BalF3-CAT-EGFR cell viability detection is based on the detection technology developed by CellTiter-Glo®. BalF3 cells are transformed by overexpressing the intracellular kinase region of wild-type EGFR to construct a CAT-EGFR tool cell strain. This cell strain lives depending on the kinase activity of EGFR, if the wild-type EGFR is inhibited by a small molecule compound, the cell strain will die. Therefore, the specificity and activity of EGFR small molecules on wild-type EGFR may be evaluated by observing the effect of EGFR small molecules on cell viability.
Ba/F3-CAT-EGFR (wild-type EGFR) cells are cultured in RPMI1640 medium containing 10% fetal bovine serum and 2 mM glutamine. Cells are grown in a humidified incubator with 5% CO2 at 37°C.
as §2, with “100” for “90”, “(3000” for “(8000”

[7] = Test 6: Test of Plasma Protein Binding Rate (equilibrium dialysis), human plasma; assay type: in vitro ADME; details: equilibrium dialysis at 37°C for 4 hours, read-out: % Unbound of human plasma sample in Test 6
Description: as §3

[8] = A-431, wild-type EGFR cells, 72 hours

| IC50 [1] | Ratio of IC50 value of Test 2 to that of Test 3 [1] | IC50 [2] | IC50 [3, 8] | Inhibitory selectivity of the compound, Ratio of IC50 value of Test 4 to IC50 value of Test 5 [5] | IC50 [5] | IC50 [6] | Compound | fraction unbound at 4 h, 2 µM [4] | fraction unbound at 4 h, 2 µM [7] | IC50 ([3]; A-431, 72 h) |
| --- | --- | --- | --- | --- | --- | --- | --- | --- | --- | --- |
| 3 nM | 193 | 15.1 nM | 579 nM |  |  |  | C=CC(=O)Nc1cc(Nc2ncnc(-n3ccc4ncccc43)n2)c(OC)cc1N(C)CCN(C)C [Compound 6, N-(5-((4-(1H-pyrrolo[3,2-b]pyridin-1-yl)-1,3,5-triazin-2-yl)amino)-2-((2-(dimethylamino)ethyl)(methyl)amino)-4-methoxyphenyl)acrylamide] |  |  |  |
|  |  | 11.1 nM |  | >2941.18 | 3.4 nM | > 10000 nM | C=CC(=O)Nc1cc(Nc2ncnc(N3CC(C)(C)c4ncccc43)n2)c(OC)cc1N(C)CCN(C)C [Compound 11, N-(5-((4-(3,3-dimethyl-2,3-dihydro-1H-pyrrolo[3,2-b]pyridin-1-yl)-1,3,5-triazin-2-yl)amino)-2-((2-(dimethylamino)ethyl)(methyl)amino)-4-methoxyphenyl)acrylamide] | 0.077 | 0.107 |  |
|  |  |  |  | > 1923.08 | 5.2 nM | > 10000 nM | C=CC(=O)Nc1cc(Nc2ncnc(-n3cc(C)c4cnccc43)n2)c(OC)cc1N(C)CCN(C)C [Compound 18, N-(2-((2-(dimethylamino)ethyl)(methyl)amino)-4-methoxy-5-((4-(3-methyl-1H-pyrrolo[3,2-c)pyridin-1-yl)-1,3,5-triazin-2-yl)amino)phenyl)acrylamide] |  |  |  |
|  |  |  |  | > 1851.85 | 5.4 nM | > 10000 nM | C=CC(=O)Nc1cc(Nc2ncnc(-n3nc(C)c4ccc(F)cc43)n2)c(OC)cc1N(C)CCN(C)C [Compound 20, N-(2-((2-(dimethylamino)ethyl)(methyl)amino)-5-((4-(6-fluoro-3-methyl-1H-indazol-1-yl)-1,3 ,5-triazin-2-yl)amino)-4-methoxyphenyl)acrylamide] |  |  |  |
| 4 nM | 179.5 | 12.1 nM | 718 nM | >2702.70 | 3.7 nM | > 10000 nM | C=CC(=O)Nc1cc(Nc2ncnc(-c3cnc4c(C)cccn34)n2)c(OC)cc1N(C)CCN(C)C [Compound 26, N-(2-((2-(dimethylamino)ethyl)(methyl)amino)-4-methoxy-5-((4-(8-methylimidazolo[1,2-a]pyridin-3-yl)-1,3,5-triazin-2-yl)amino)phenyl)acrylamide] |  |  |  |
| 5 nM | 176.6 | 11.8 nM | 883 nM | >3125.00 | 3.2 nM | > 10000 nM | C=CC(=O)Nc1cc(Nc2ncnc(-c3cnc4c(F)cccn34)n2)c(OC)cc1N(C)CCN(C)C [Compound 27, N-(2-((2-(dimethylamino)ethyl)(methyl)amino)-5-((4-(8-fluoroimidazolo[1,2-a]pyridin-3-yl)-1 ,3,5-triazin-2-yl)amino)-4-methoxyphenyl)acrylamide] |  |  |  |
| 4 nM | 189.5 | 11.4 nM | 758 nM | >2500.00 | 4 nM | > 10000 nM | C=CC(=O)Nc1cc(Nc2ncnc(-c3cnc4c(C(F)(F)F)cccn34)n2)c(OC)cc1N(C)CCN(C)C [Compound 28, N-(2-((2-(dimethylamino)ethyl)(methyl)amino)-4-methoxy-5-((4-(8-(trifluoromethyl)imidazolo[1,2-a]pyridin-3-yl)-1,3,5-triazin-2-yl)amino)phenyl)acrylamide] |  |  |  |
| 4 nM | 235.3 | 10.6 nM | 941 nM | >2222.22 | 4.5 nM | > 10000 nM | C=CC(=O)Nc1cc(Nc2ncnc(-n3nc(F)c4ccccc43)n2)c(OC)cc1N(C)CCN(C)C [Compound 29, N-(2-((2-(dimethylamino)ethyl)(methyl)amino)-5-((4-(3-fluoro-1H-indazol-1-yl)-1,3,5-triazin-2-yl)amino)-4-methoxyphenyl)acrylamide] |  |  |  |

| Compound | IC50 [1] | Ratio of IC50 value of Test 2 to that of Test 3 [1] | IC50 [2] | IC50 [3, 8] | Inhibitory selectivity of the compound, Ratio of IC50 value of Test 4 to IC50 value of Test 5 [5] | IC50 [5] | IC50 [6] | fraction unbound at 4 h, 2 µM [4] | fraction unbound at 4 h, 2 µM [7] | IC50 ([3]; A-431, 72 h) |
| --- | --- | --- | --- | --- | --- | --- | --- | --- | --- | --- |
| C=CC(=O)Nc1cc(Nc2nccc(-c3cn(C)c4ccccc34)n2)c(OC)cc1N(C)CCN(C)C [Osimertinib (AZD9291), Osimertinib, reference compound] | […] |  |  |  |  | 7.1 nM | 3120 nM | 0.005 | 0.025 | […] |
